Experimental data from patent US6831075B2, “Heterocyclic substituted pyrazolones” (Cephalon, Inc., priority 1999, dated 2004).

Key:
Assay type in all cases: biochemical
[1] = target: T1, baculoviral GST-MLK2KDLZ (Homo sapiens, UniProt Q02779); test: Mixed Lineage Kinase-2 inhibition assay (Millipore Multiscreen plate, 32P); settings: 1 uM compound, 100 μM ATP
T1 construct: 3 μg/ml of baculoviral GST-MLK2KDLZ; GST (N); host or cells: baculovirus expression system
Experimental: Inhibition of Mixed Lineage Kinase-2 Activity
(§1) Assays were performed using the Millipore Multiscreen plate format as described for MLK1. Each 50-μl assay mixture contained 20 mM Hepes, pH 7, 1 mM EGTA, 10 mM MgCl2, 1 mM DTT, 25 mM β-glycerophosphate, 100 μM ATP, 0.25 μCi [γ-^32P]ATP, 0.1% BSA, 500 μg/ml myelin basic protein (UBI #13-104), 2% DMSO, various concentrations of test compound, and 3 μg/ml of baculoviral GST-MLK2KDLZ. Samples were incubated for 15 min. at 37° C. The reaction was stopped by adding ice cold 50% TCA and the proteins were allowed to precipitate for 30 min at 4° C. The plates were then washed with ice cold 25% TCA Supermix scintillation cocktail was added, and the plates were allowed to equilibrate for 1-2 hours prior to counting.

[2] = target: T2, baculoviral GST-MLK3KD (Homo sapiens, UniProt Q16584); test: Mixed Lineage Kinase-3 inhibition assay (Millipore Multiscreen plate, 32P); settings: 1 uM compound, 100 μM ATP
T2 construct: 2 μg/ml of baculoviral GST-MLK3KD; GST (N); host or cells: baculovirus expression system
Experimental: Inhibition of Mixed Lineage Kinase-3 Activity
as §1, with “MLK1. Briefly, each” for “MLK1. Each”, “and 2” for “and 3”, “baculoviral GST-MLK3KD.” for “baculoviral GST-MLK2KDLZ.”, “15 min” for “15 min.”, “25% TCA.” for “25% TCA”

[3] = target: T3, recombinant human baculovirus-expressed VEGFR1 cytoplasmic domain (Homo sapiens, UniProt P17948); test: VEGFR1 kinase inhibition assay (ELISA-based, time-resolved fluorescence); settings: 1 uM compound, 30 μM ATP
T3 construct: recombinant human baculovirus-expressed VEGFR1 cytoplasmic domain; host or cells: baculovirus expression system
T3 sequence (P17948 781-1338 limits assumed): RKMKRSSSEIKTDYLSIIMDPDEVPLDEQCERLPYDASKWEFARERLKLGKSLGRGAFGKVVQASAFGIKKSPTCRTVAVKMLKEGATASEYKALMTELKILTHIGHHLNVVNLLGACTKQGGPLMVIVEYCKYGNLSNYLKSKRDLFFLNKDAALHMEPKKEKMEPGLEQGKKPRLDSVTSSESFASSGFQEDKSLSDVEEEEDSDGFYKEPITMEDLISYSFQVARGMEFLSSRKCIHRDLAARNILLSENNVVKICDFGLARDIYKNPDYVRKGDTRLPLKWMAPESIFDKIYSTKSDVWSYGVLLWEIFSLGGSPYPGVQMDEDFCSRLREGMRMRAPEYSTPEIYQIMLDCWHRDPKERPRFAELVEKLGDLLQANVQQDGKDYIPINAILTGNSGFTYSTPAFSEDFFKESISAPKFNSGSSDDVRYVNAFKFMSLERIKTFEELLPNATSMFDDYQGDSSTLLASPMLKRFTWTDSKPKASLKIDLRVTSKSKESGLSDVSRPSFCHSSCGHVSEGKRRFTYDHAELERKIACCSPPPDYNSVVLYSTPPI
Experimental: Inhibition of Vascular Endothelial Growth Factor Receptor-1 Kinase Activity
The VEGFR1 kinase activity assay utilizes an ELISA-based format in a 96-well FluoroNUNC Maxisorp plate with a time-resolved fluorescence readout. The plate was coated with 100 μl/well of substrate solution (recombinant human PLC-γ/GST) at a concentration of 40 μg/ml in Tris buffered saline (TBS). The VEGFR1 activity was assayed in 100-μl assay micture containing 50 mM HEPES (pH 7.4), 30 μM ATP, 10 mM MnCl2, 0.1% BSA, 2% DMSO, and 300 ng/ml prephosphorylated recombinant human baculovirus-expressed VEGFR1 cytoplasmic domain. Compounds were screened for inhibition of the VEGFR1 kinase activity at a concentration of 1 μM. The kinase reaction was allowed to proceed at 37° C. for 15 minutes. The detection antibody, europium-labeled anti-phosphotyrosine antibody (Wallac #CR04-100), was added at 1:5000 dilution in block buffer (3% BSA in TBST). After a 1-hour incubation at 37° C., 100 μl of enhancement solution (Wallac #1244-105) was added and the plate was gently agitated. After 5 min, the fluorescence of the resulting solution was measured using the BMG Fluostar (Model # 403).

[4] = target: T4, recombinant human baculovirus-expressed FGFR1 cytoplasmic domain (Homo sapiens, UniProt P11362); test: FGFR1 kinase inhibition assay (ELISA-based, time-resolved fluorescence); settings: 1 uM compound; 20 μM ATP
T4 construct: recombinant human baculovirus-expressed FGFR1 cytoplasmic domain; host or cells: baculovirus expression system
Experimental: Inhibition of Fibroblast Growth Factor Receptor-1 (FGFR1) Kinase Activity
The FGFR1 kinase activity was measured using an ELISA-based format in a 96-well FluoroNUNC Maxisorp plate with a time-resolved fluorescence readout as described for trkA kinase. The plate was coated with 100 μl/well of substrate solution (recombinant human PLC-γ/GST) at a concentration of 10 μg/ml in Tris buffered saline (TBS). The FDGFR1 activity was assayed in 100-μl assay micture containing 50 mM HEPES (pH 7.4), 20 μM ATP, 10 mM MnCl2, 0.1% BSA, 2% DMSO, and 15 ng/ml recombinant human baculovirus-expressed FGFR1 cytoplasmic domain (prephosphorylated prior to use). Compounds were screened for inhibition of the FGFR1 kinase activity at a conentration of 1 μM. The kinase reaction was allowed to proceed at 37° C. for 15 minutes. The detection antibody, europium-labeled anti-phosphotyrosine antibody (Wallace #CR04-100), was added at 1:5000 dilution in block buffer (3% BSA in TBST). After a 1-hour incubation at 37° C., 100 μl of enhancement solution (Wallac #1244-105) and the plate was gently agitated. After 5 min, the fluorescence of the resulting solutions measured using the BMG Fluostar (Model # 403).

T4 sequence (P11362 398-822 limits assumed): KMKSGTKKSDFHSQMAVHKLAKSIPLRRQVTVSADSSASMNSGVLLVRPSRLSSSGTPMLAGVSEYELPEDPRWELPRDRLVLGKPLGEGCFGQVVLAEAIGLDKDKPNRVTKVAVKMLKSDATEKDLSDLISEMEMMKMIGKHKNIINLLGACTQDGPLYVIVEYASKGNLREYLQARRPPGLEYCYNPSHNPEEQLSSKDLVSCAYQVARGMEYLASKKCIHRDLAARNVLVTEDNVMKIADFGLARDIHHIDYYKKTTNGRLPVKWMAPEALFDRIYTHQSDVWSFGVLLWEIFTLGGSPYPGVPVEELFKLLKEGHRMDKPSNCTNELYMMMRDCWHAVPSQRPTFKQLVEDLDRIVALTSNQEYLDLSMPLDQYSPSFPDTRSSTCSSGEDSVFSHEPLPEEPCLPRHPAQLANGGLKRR
T1 sequence (Q02779 98-440 limits assumed): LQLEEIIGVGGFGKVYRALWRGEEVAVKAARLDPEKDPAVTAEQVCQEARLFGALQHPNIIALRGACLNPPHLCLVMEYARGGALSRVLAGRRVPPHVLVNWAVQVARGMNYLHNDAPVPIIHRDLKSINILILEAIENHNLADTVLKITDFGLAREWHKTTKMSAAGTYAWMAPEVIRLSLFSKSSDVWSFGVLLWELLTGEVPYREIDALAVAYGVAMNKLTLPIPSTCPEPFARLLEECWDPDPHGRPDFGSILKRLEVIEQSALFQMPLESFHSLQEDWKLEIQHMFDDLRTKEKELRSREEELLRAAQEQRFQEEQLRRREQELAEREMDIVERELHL
T2 sequence (Q16584 117-379 limits assumed): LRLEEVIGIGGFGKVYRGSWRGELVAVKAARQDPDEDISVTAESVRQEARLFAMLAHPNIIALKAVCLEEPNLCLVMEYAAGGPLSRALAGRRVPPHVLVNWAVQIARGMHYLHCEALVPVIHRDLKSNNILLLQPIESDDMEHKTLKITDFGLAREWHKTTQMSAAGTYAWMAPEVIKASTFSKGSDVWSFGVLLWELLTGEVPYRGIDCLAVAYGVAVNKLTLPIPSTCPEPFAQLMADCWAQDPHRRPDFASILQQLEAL

Structure (SMILES)	MLK-2 Kinase % inhibition @ 1 uM [1]	MLK-3 Kinase % inhibition @ 1 uM [2]	VEGFR-1 kinase % inhibition @ 1 uM [3]	FGFR1 % inhibition @ 1 uM [4]	inhibition at 1 µM ([1]; read-out: MLK-2 Kinase % inhibition @ 1 uM)	inhibition at 1 µM ([2]; read-out: MLK-3 Kinase % inhibition @ 1 uM)	inhibition at 1 µM ([3]; read-out: VEGFR-1 kinase % inhibition @ 1 uM)	inhibition at 1 µM [4]
O=C1NN=C(c2ccoc2)C1=Cc1c[nH]c2ccc(OCc3ccccc3)cc12 [Compound 21]	−13%	24%	0%	15%	–	–	–	–
Cc1cccc2c(C=C3C(=O)NN=C3c3ccoc3)c[nH]c12 [Compound 22]	−13%	24%	23%	22%	–	–	–	–
O=C1NN=C(c2ccco2)C1=Cc1c[nH]c2ccc(OCc3ccccc3)cc12 [Compound 43]	2%	21%	−2%	26%	–	–	–	–
O=C1NN=C(c2nccs2)C1=Cc1cn(CCOCc2ccccc2)c2ccccc12 [Compound 72]	3%	28%	12%	29%	–	–	–	–
Cc1cc(C)c(C=C2C(=O)NN=C2c2cccs2)[nH]1 [Compound 61]	−4%	72%	44%	35%	–	–	–	–
Cn1ccc(C2=NNC(=O)C2=Cc2c[nH]c3cccc(OCc4ccccc4)c23)c1 [Compound 31]	0%	49%	10%	17%	–	–	–	–
N#CCCn1cc(C=C2C(=O)NN=C2c2nccs2)c2ccccc21 [Compound 64]	9%	15%	26%	7%	–	–	–	–
Cc1cc(C)c(C=C2C(=O)NN=C2c2csc3ccccc23)[nH]1 [Compound 39]	−7%	55%	4%	13%	–	–	–	–
CCOC(=O)CCc1c(C(=O)OCC)[nH]c(C=C2C(=O)NN=C2c2ccoc2)c1CC(=O)OCC [Compound 7]	−12%	7%	13%	28%	–	–	–	–
Cc1cc(C)c(C=C2C(=O)NN=C2c2csc(-c3ccccc3)n2)[nH]1 [Compound 40]	−8%	22%	16%	22%	–	–	–	–
Cc1nc[nH]c1C=C1C(=O)NN=C1c1ccco1 [Compound 53]	−13%	12%	21%	50%	–	–	–	–
Cc1cc(C)c(C=C2C(=O)NN=C2c2cc3ccccc3o2)[nH]1 [Compound 57, 3-benzo[d]furan-2-yl-4-[(3,5-dimethylpyrrol-2-yl)methylene]-2-pyrazolin-5-one]	–	–	–	–	5%	67%	7%	-2%
